Consider 6 compounds from patent US5928933A, “Process for the enzymatic resolution of N-(alkoxycarbonyl)-4-ketoproline alkyl esters or N-(alkoxycarbonyl)-4-hydroxyproline alkyl esters using Candida antarctica lipase B” (priority 1998, dated 1999).

Read-outs that look alike come from different tables or passages of the source.

The target of data set [1] is T1, Candida antartica lipase fraction B (CALB) (Moesziomyces antarcticus, UniProt P41365).
T1 construct: purchased Boehringer Mannheim CHIRAZYME L-2
T1 sequence (P41365 26-342): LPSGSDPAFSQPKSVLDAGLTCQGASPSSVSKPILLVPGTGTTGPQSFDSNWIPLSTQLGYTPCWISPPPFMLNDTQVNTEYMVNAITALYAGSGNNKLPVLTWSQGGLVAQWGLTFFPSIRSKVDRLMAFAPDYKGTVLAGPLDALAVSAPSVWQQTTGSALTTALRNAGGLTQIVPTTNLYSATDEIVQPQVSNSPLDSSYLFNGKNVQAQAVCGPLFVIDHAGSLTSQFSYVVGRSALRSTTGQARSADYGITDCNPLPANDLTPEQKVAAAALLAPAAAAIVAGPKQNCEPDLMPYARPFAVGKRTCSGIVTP
The data set is classed as biochemical. As for the experimental part: Using CALB for the diastereomeric resolution of five of the six possible pairs of diastereomers of N-(methoxycarbonyl)-4-hydroxyproline methyl esters produced the diastereomeric excesses at the indicated conversions listed in Table 1 below.
(§1) A 3.0 mL aqueous solution containing 50 mM N-(methoxycarbonyl)-trans-4-hydroxy-L-proline methyl ester and 50 mM N-(methoxycarbonyl)-cis-4-hydroxy-D-proline methyl ester in 0.100M potassium phosphate (pH 7.0) was mixed with 2.1 mg/mL of Candida antartica lipase fraction B at 25° C. The reaction was analyzed by removal of a 0.200 mL sample and mixing with an equivalent volume of 0.100M propionic acid (HPLC internal standard) in water. The resulting solution was filtered through a 10K molecular weight cut-off filter to remove the enzyme and the filtrate analyzed by high pressure liquid chromatography on a HPX-87H column (Bio-Rad, 30 cm×7.8 mm) to determine the percent conversion of each isomer of the diastereomeric mixture, and the diastereomeric excess of the N-(methoxycarbonyl)-cis-4-hydroxy-D-proline methyl ester.
A 2.0 mL aqueous solution containing 50 mM N-(methoxycarbonyl)-trans-4-hydroxy-L-proline methyl ester and 50 mM N-(methoxycarbonyl)-cis-4-hydroxy-D-proline methyl ester in 0.100M potassium phosphate (pH 7.0) was mixed with 403 mg of immobilized Candida antartica lipase fraction B (Boehringer Mannheim, CHIRAZYME® L-2, c.-f., C2, lyo.) at 31° C. The reaction was analyzed by mixing the entire reaction mixture with an equivalent volume of 0.100M propionic acid (HPLC internal standard) in water […]. An aliquot of the resulting solution was filtered through a 10K molecular weight cut-off filter to remove the enzyme and the filtrate analyzed by high pressure liquid chromatography on a HPX-87H column (Bio-Rad, 30 cm×7.8 mm) to determine the percent conversion of each isomer of the distereomeric mixture, and the diastereomeric excess of the N-(methoxycarbonyl)-cis-4-hydroxy-D-proline methyl ester. After 7 h, a 94% diastereomeric excess of N-(methoxycarbonyl)-cis-4-hydroxy-D-proline methyl ester was obtained at 49% conversion of the diastereomeric mixture (3.2% N-(methoxycarbonyl)-trans-4-hydroxy-L-proline methyl ester remained).
as §1, with “A 5.0” for “A 3.0”, “containing 51” for “containing 50”, “and 51” for “and 50”, “with 50” for “with 2.1”, “the N-(methoxycarbonyl)-trans-4-hydroxy-D-prolinemethyl” for “the N-(methoxycarbonyl)-cis-4-hydroxy-D-proline methyl”
A 5.0 mL aqueous solution containing 50 mM N-(methoxycarbonyl)-cis-4-hydroxy-D-proline methyl ester and 50 mM N-(methoxycarbonyl)-cis-4-hydroxy-L-proline methyl ester in 0.100M potassium phosphate (pH 7.0) and 50 mg/mL of Candida antartica lipase fraction B was mixed at 25° C. The reaction was analyzed by removal of two 0.200 mL aliquots at pre-determined times. One 0.200 mL aliquot was mixed with an equivalent volume of 0.100M propionic acid (HPLC internal standard) in water, and the resulting solution filtered through a 10K molecular weight cut-off filter to remove the enzyme. The filtrate was then analyzed by high pressure liquid chromatography on a HPX-87H column (Bio-Rad, 30 cm×7.8 mm) to determine the total percent conversion of both the D- and L-proline isomers of the N-(methoxycarbonyl)-cis-4-hydroxyproline methyl esters. […]

Data set [2] addresses T1, Candida antartica lipase fraction B (CALB). The data set is classed as biochemical. The following applies: 0.20m succinate, 5 h, pH 6. As for the experimental part: (§2) Reacting a 0.10M solution of the 1:1 mixture of KDP(MEMC) and KLP(MEMC) in 0.20M succinate (pH 6.0) at 25° C. for 5 h with approximately 1-3 mg/mL of Candida antartica lipase fraction B (CALB) produced a 95% ee (substrate) of KDP(MEMC) at 51% conversion. […] The calculated enantioselectivity (E) at 51% conversion was E=81.
(§3) The enzymatic hydrolysis reaction of KDP(MEMC) and KLP(MEMC) using CALB (described above) was repeated at pH 5.0 in 0.20M acetate buffer (Example 2), and a 100% ee (substrate) of the D-isomer was obtained at 51% conversion (E=>1000); the reaction rate was approximately 50% of the rate at pH 6.0, and the slight loss of the D-isomer at pH 5.0 was again observed in the absence of added enzyme (95% recovery at pH 5.0 after 24 h with no enzyme).
The procedure described in Example I was repeated using Candida antartica lipase fraction B (CALB), except that the reaction was run in 0.200M sodium cetate (pH 5.0) instead of the 0.20M sodium succinate buffer (pH 6.0) used for Candida antartica lipase fraction B in Example 1. Aqueous solutions (5.0 mL) containing varying concentrations of a racemic mixture of N-(methoxycarbonyl)-4-keto-D,L-proline methyl ester and CALB were mixed at 15° C., 25° C., 35° C. or 45° C.
An aqueous solution (5.0 mL) containing 25 mM N-(methoxycarbonyl)-4-keto-Dproline methyl ester and 25 mM N-(methoxycarbonyl)-4-keto-L-proline methyl ester in 0.200M sodium acetate (pH 5.0) was mixed with 2.5 g of immobilized Candida antartica lipase fraction B (Boehringer Mannheim, CHIRAZYME® L-2, c.-f., C2, lyo.) at 25° C. […] The dichloromethane extract was then analyzed by chiral gas chromatography on a Chiraldex G-TA column (Advanced Separation Technologies, Inc., 50 m×0.32 mm ID) to determine the amounts of the unreacted D- and L-isomers. After 31 h, an 85% enantiomeric excess of N-(methoxycarbonyl)-4-keto-D-proline methyl ester was obtained at 41% conversion of the racemic mixture.
A 200 mL aqueous solution containing 0.200M sodium acetate (pH 5.0), 1.3325 g of Candida antartica lipase fraction B, and 4.02 g of racemic N-(methoxycarbonyl)-4-keto-D,L-proline methyl ester (100 mM) was stirred at 25° C. After 24 h, an 96% enantiomeric excess of N-(methoxycarbonyl)-4-keto-D-proline methyl ester was obtained at 50% conversion of the racemic mixture. The reaction mixture was filtered using a 10,000 MWCO membrane filter (Amicon) to remove the enzyme catalyst, and the filtrate extracted with three 200 mL portions of dichloromethane. The combined organic extracts were dried over magnesium sulfate, filtered, and the dichloromethane removed from the filtrate by rotary evaporation at reduced pressure. Residual dichloromethane was removed from the resulting colorless oil at high vacuum (50 millitorr) to produce N-(methoxycarbonyl)-4-keto-D-proline methyl ester as a white solid (1.99 g, 99% isolated yield, 99% purity (by GC), 97% ee).
An aqueous solution (2.0 mL) containing 50 mM N-(ethoxycarbonyl)-4-keto-D-proline ethyl ester and 50 mM N-(ethoxycarbonyl)-4-keto-L-proline ethyl ester in 0.200M sodium acetate (pH 5.0) and 30 mg/mL of Candida antartica lipase fraction B was mixed at 25° C. […] The dichloromethane extract was then analyzed by chiral gas chromatography on a Chiraldex G-TA column (Advanced Separation Technologies, Inc., 50 m×0.32 mm ID) to determine the amounts of the unreacted D- and L-isomers. After 24 h, a 100% enantiomeric excess of N-(ethoxycarbonyl)-4-keto-D-proline ethyl ester was obtained at 51% conversion of the racemic mixture.
An aqueous solution (1.0 mL) containing 19 mM of N-(2-phenylacetyl)-4-keto-D-proline methyl ester and 19 mM of N-(2-phenylacetyl)-4-keto-L-proline methyl ester in 0.200M sodium acetate (pH 5.0) and 25 mg/mL of Candida antartica lipase fraction B was mixed at 25° C. […]

Data set [3] can be described thus: Stability of aqueous solutions of the esters in the absence of enzyme. The data set is classed as physicochemical. The following applies: for isomer lost without added enzyme: pH 6.0, identical reaction conditions (0.20M succinate, 25° C.), 5 h. As for the experimental part: as §2, §3
The pH of the reaction mixture is also chosen to optimize the reaction rate, the stability of the enzyme catalyst activity, and the stability of the ketoproline or hydroxyproline derivatives. The stability of aqueous solutions of N-(alkoxy-carbonyl)-4-ketoproline alkyl esters or N-(alkoxycarbonyl)-4-hydroxyproline alkyl esters were dependent on pH. […] For resolution of mixtures of N-(alkoxycarbonyl)-4-keto-D,L-proline alkyl esters, a pH range of from 3.0 to 6.0 is preferred, and a pH range of from 4.0 to 5.0 is most preferred. For resolution of diastereomeric mixtures of N-(alkoxycarbonyl)-4-hydroxy-proline alkyl esters, a pH range of from 3.0 to 7.5 is preferred, and a pH range of from 6.0 to 7.0 is most preferred.

Data set [4] deals with T1, Candida antartica lipase fraction B (CALB). The experiment in a line: Relative rates of hydrolysis of N-(alkoxycarbonyl)-trans-4-hydroxy-L-proline methyl esters by CALB. The data set is classed as biochemical. The following applies: 50 mM substrate, 3.0 mg/mL CALB, 25° C. The protocol:
A 2.0 mL aqueous solution containing 50 mM N-(methoxycarbonyl)-trans-4-hydroxy-L-proline methyl ester, or 50 mM N-(ethoxycarbonyl)-trans-4-hydroxy-L-proline methyl ester, or 50 mM N-(tert-butoxycarbonyl)-trans-4-hydroxy-L-proline methyl ester in 0.100M potassium phosphate (pH 7.0) and 3.0 mg/mL of Candida antartica lipase fraction B was mixed at 25° C. The reactions were analyzed by removal of 0.200 mL aliquots at pre-determined times and mixing the sample with an equivalent volume of 0.100M propionic acid (HPLC internal standard) in water, and filtering the resulting solution through a 10K molecular weight cut-off filter to remove the enzyme. The filtrate was then analyzed by high pressure liquid chromatography on a HPX-87H column (Bio-Rad, 30 cm×7.8 mm) to determine the percent conversion of the N-(alkoxycarbonyl)-trans-4-hydroxy-L-proline methyl ester. Complete hydrolysis of the methyl ester of the N-methoxy-, N-ethoxy-, and N-tert-butoxycarbonyl derivatives occurred in 5 h, 2 h, and 6 h, respectively, and the initial reaction rates were 5.7, 18.7, and 3.3 micromoles/h/mg enzyme catalyst, respectively.

[5] abbreviates: candida antartica lipase b, 24 h, 51000 µM, pH 7.

As for `COC(=O)[C@@H]1C[C@H](O)CN1C(=O)OC` [CHLP(MEMC), N-(methoxycarbonyl)-cis-4-hydroxy-L-proline methyl ester], the isomer remaining result in data set [1] (50 mM each, 50 mg/mL CALB, pH 7.0, 25° C., 47 h) is “no N-(methoxycarbonyl)-cis-4-hydroxy-L-proline methyl ester remained”; in data set [1] (setting [5]) it was 3.0%.

For `COC(=O)[C@@H]1CC(=O)CN1C(=O)OC` [KLP(MEMC), N-(methoxycarbonyl)-4-keto-L-proline methyl ester], the “share of isomer remaining at 51% conversion” value in data set [2] is 2.5%. In addition, the “isomer lost without added enzyme” value in data set [3] was “approximately 3%”.

With `COC(=O)[C@H]1CC(=O)CN1C(=O)OC` [KDP(MEMC), N-(methoxycarbonyl)-4-keto-D-proline methyl ester], in data set [2], the “share of isomer remaining at 51% conversion” value is on record as 97.5%. In data set [3] (pH 5.0, after 24 h), the “recovery with no enzyme” value stood at 95%. In addition, in data set [3], the “isomer lost without added enzyme” value is listed as “approximately 3%”.

Take `COC(=O)[C@H]1C[C@@H](O)CN1C(=O)OC` [CHDP(MEMC), N-(methoxycarbonyl)-cis-4-hydroxy-D-proline methyl ester]: in data set [1] (under reaction conditions), the “methyl ester hydrolysis by CALB” value is “no hydrolysis”.

The compound `COC(=O)[C@H]1C[C@H](O)CN1C(=O)OC` [THDP(MEMC), N-(methoxycarbonyl)-trans-4-hydroxy-D-proline methyl ester] returned an isomer remaining in data set [1] (setting [5]) of 82.7%.

For `COC(=O)[C@@H]1C[C@@H](O)CN1C(=O)OC` [THLP(MEMC), N-(methoxycarbonyl)-trans-4-hydroxy-L-proline methyl ester], the isomer remaining result in data set [1] (50 mM each, 2.1 mg/mL CALB, pH 7.0, 25° C., 24 h) is recorded as “no N-(methoxycarbonyl)-trans-4-hydroxy-L-proline methyl ester remained”; in data set [1] (50 mM each, 4.0 mg/mL CALB, pH 7.0, 25° C., 24 h) it was “no N-(methoxycarbonyl)-trans-4-hydroxy-L-proline methyl ester remained”; in data set [1] (candida antartica lipase b, 7 h, 50000 µM, pH 7), 3.2%. Further, in data set [4] (0.100M potassium phosphate pH 7.0), the “time to complete hydrolysis of the methyl ester” value turned out to be 5 h. Besides, in data set [4] (pH 7.0), the initial reaction rate was 5.7 micromoles/h/mg enzyme catalyst.
